From patent publication US8163778B2 (Hoffmann-LA Roche Inc., priority 2007, dated 2012) come the findings set out here.

The test has as its target T1, human liver FBPase (Homo sapiens, UniProt P09467).
T1 construct: made in house; host or cells: E. coli
T1 sequence (P09467 2-338 limits assumed): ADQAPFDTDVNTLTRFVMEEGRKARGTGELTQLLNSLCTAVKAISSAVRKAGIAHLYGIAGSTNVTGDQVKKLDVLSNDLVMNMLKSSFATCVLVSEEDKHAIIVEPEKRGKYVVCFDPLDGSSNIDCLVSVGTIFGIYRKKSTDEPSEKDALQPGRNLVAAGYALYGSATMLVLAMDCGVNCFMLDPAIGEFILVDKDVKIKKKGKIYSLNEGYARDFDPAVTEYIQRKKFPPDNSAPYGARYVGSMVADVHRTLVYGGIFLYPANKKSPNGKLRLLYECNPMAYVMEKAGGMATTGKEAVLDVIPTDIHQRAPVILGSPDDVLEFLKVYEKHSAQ
Put plainly: FBPase assay (malachite green phosphate release). It counts as biochemical. Conditions: recombinant human liver FBPase, 50 μM fructose-1,6-bisphosphate. The protocol: The following tests were carried out for evaluating the inhibitory activity of the compounds of the present invention against human liver FBPase (Swissprot Data base reference PO9467, entry F16P_HUMAN).
Human liver FBPase cDNA (NM_000507) was purchased from Origene Technologies, Inc, subcloned in a vector for expression in E. Coli., and sequenced. Recombinant human liver FBPase (hlFBPase) was purified according to the following protocol that uses heat denaturation similarly to that described by El-Maghrabi et al. [El-Maghrabi, M. R. et al. “Isolation of a human liver fructose-1,6-bisphosphatase cDNA and expression of the protein in Escherichia coli.” J Biol Chem 268:9466-9472, 1993.]. Briefly, E. coli cells, transiently expressing very high levels of soluble and active human liver FBPase, were suspended in 20 mM Tris-HCl pH 7.5, 1 mM EDTA, 1 mM DTT and were lysed by French press. The soluble extract was heat denatured at 65° C. for 5 min, and insoluble, denatured proteins were removed by centrifugation. The extract was then applied to a BioRad Macro-Prep High Q column equilibrated with 20 mM Tris-HCl pH 7.5, 1 mM EDTA, 1 mM DTT and the flow-through (containing FBPase activity) was collected and applied to a BioRad Macro-Prep HS column equilibrated with 20 mM HEPES pH 7.2, 1 mM DTT. A gradient of increasing NaCl concentration was then applied to the HS column and fractions were collected. Fractions containing active FBPase were pooled and further purified by size exclusion chromatography on a Sephacryl S200 column equilibrated in 20 mM Tris-HCl pH 7.5, 150 mM NaCl, 1 mM EDTA, 1 mM DTT. Purity of the enzyme preparation was >90% as assessed by Mass spectrometry.
Recombinant human liver FBPase (hlFBPase) activity was assayed through measuring the inorganic phosphate release that results from the hydrolysis of Fructose-1,6-bisphosphate by the enzyme. As described by Baykov A. A. et al. in [Baykov A. A et al., “Malachite Green procedure for orthophosphate determination and its use in alkaline phosphatase-based enzyme immunoassays”. Anal. Biochem., 171:266-270, 1988], inorganic phosphate can be readily quantified by spectrophotometry at 620 nm after complexation with ammonium molybdate/malachite green reagent. Enzymatic reaction was carried out with modifications of the procedure described by Wright S. W. et al. [Wright S. W. et al., “Anilinoquinazoline inhibitors of Fructose-1,6-bisphosphatase bind to a novel allosteric site: synthesis, in vitro characterization, and X-ray crystallography”. J. Med. Chem. 45:3865-3877, 2002]. Specifically, the reaction was carried out in 96 well plates in a final volume of 100 μl in the presence or in the absence of allosteric inhibitors. Reaction was started adding 25 ng of hlFBPase to the reaction mixture containing 50 mM HEPES-KOH buffer pH 7.2, 2 mM MgCl2, 2 mM EDTA, 1 mM DTT, 50 μM fructose-1,6-bisphosphate and 1% DMSO. After 50 minutes incubation at room temperature, the phosphate released was allowed to form a colored complex for 10 min by adding 150 μl of ammonium molybdate/malachite green reagent containing 0.03% malachite green, 0.2% ammonium molybdate, 0.05% Triton X-100 and 0.7 M H2SO4 in water that was stirred for 30 min at room temperature and filtered through 0.2 μm filter. Under these conditions, the assay was linear with time and able to detect FBPase inhibition after spectrophotometric read-out at 620 nm.

One may read the IC50 as the point on the concentration scale where inhibition reaches its midpoint. As for `O=C(Nc1cc(Br)ccn1)NS(=O)(=O)c1cccc(Cl)c1` [Compound 55, N-[(4-Bromopyridin-2-yl)carbamoyl]-3-chlorobenzenesulfonamide], the IC50 turned out to be 1550 nM.

Regarding `COCCc1sc(S(=O)(=O)NC(=O)Nc2cc(C)cc(N3CCc4ccccc4C3)n2)cc1C` [Compound 56, N-{[6-(3,4-Dihydroisoquinolin-2(1H)-yl)-4-methylpyridin-2-yl]carbamoyl}-5-(2-methoxyethyl)-4-methylthiophene-2-sulfonamide], the IC50 came out at 1730 nM.

In the case of `COCCOc1ccc(S(=O)(=O)NC(=O)Nc2cc(Br)cc(N)n2)cc1C` [Compound 57, N-[(6-Amino-4-bromopyridin-2-yl)carbamoyl]-4-(2-methoxyethoxy)-3-methylbenzenesulfonamide], the IC50 worked out at 1770 nM.

With `COCCc1sc(S(=O)(=O)NC(=O)Nc2cc(OC)cc(C#N)n2)cc1C` [Compound 58, N-[(6-Cyano-4-methoxypyridin-2-yl)carbamoyl]-5-(2-methoxyethyl)-4-methylthiophene-2-sulfonamide], the IC50 was 1960 nM.

For `COCCc1sc(S(=O)(=O)NC(=O)Nc2cc(OC)cc(NC(=O)N(C)C)n2)cc1C` [Compound 59, N-({6-[(Dimethylcarbamoyl)amino]-4-methoxypyridin-2-yl}carbamoyl)-5-(2-methoxyethyl)-4-methylthiophene-2-sulfonamide], the IC50 was found to be 2030 nM.

For the molecule `Cc1cccc(S(=O)(=O)NC(=O)Nc2cc(Br)ccn2)c1` [Compound 60, N-[(4-Bromopyridin-2-yl)carbamoyl]-3-methylbenzenesulfonamide], the IC50 came out at 2070 nM.

In the case of `COCCc1sc(S(=O)(=O)NC(=O)Nc2cc(OC)cc(NC(=O)OC)n2)cc1C` [Compound 61, Methyl-{4-methoxy-6-[({[5-(2-methoxyethyl)-4-methyl-2-thienyl]sulfonyl}carbamoyl)amino]pyridin-2-yl}carbamate], the IC50 is 2070 nM.

As to `COCCc1sc(S(=O)(=O)NC(=O)Nc2cc(C#N)cc(N)n2)cc1C` [Compound 62, N-[(6-Amino-4-cyanopyridin-2-yl)carbamoyl]-5-(2-methoxyethyl)-4-methylthiophene-2-sulfonamide], the IC50 turned out to be 2120 nM.

Consider `CCOc1cc(N)nc(NC(=O)NS(=O)(=O)c2cc(C)c(CCOC)s2)c1` [Compound 64, N-[(6-Amino-4-ethoxypyridin-2-yl)carbamoyl]-5-(2-methoxyethyl)-4-methylthiophene-2-sulfonamide], for which the IC50 stood at 2180 nM.

In the case of `N#CCc1ccc(-c2ccc(S(=O)(=O)NC(=O)Nc3cc(Br)ccn3)s2)cc1` [Compound 65, N-[(4-Bromopyridin-2-yl)carbamoyl]-5-[4-(cyanomethyl)phenyl]thiophene-2-sulfonamide], the IC50 was found to be 2210 nM.

For `COCCc1sc(S(=O)(=O)NC(=O)Nc2cc(Br)cc(NCc3ccc(OC)cc3OC)n2)cc1C` [Compound 66, N-({4-Bromo-6-[(2,4-dimethoxybenzyl)amino]pyridin-2-yl}carbamoyl)-5-(2-methoxyethyl)-4-methylthiophene-2-sulfonamide], the IC50 worked out at 2350 nM.

For the molecule `O=C(Nc1cc(Br)cc(NC(=O)NS(=O)(=O)c2cccc(Cl)c2)n1)NS(=O)(=O)c1cccc(Cl)c1` [Compound 67, N,N′-[(4-Bromopyridine-2,6-diyl)bis(iminocarbonyl)]bis(3-chlorobenzenesulfonamide)], the IC50 came to 2510 nM.

With `CCOc1cc(NC(=O)NS(=O)(=O)c2cc(C)c(CCOC)s2)nc(NC(=O)N(C)C)c1` [Compound 68, N-({6-[(Dimethylcarbamoyl)amino]-4-ethoxypyridin-2-yl}carbamoyl)-5-(2-methoxyethyl)-4-methylthiophene-2-sulfonamide], the IC50 was found to be 3050 nM.

For `O=C(Nc1cc(Br)ccn1)NS(=O)(=O)c1ccc(Cl)cc1` [Compound 69, N-[(4-Bromopyridin-2-yl)carbamoyl]-4-chlorobenzenesulfonamide], the IC50 came out at 3070 nM.
